“Also recorded” adds a separate entry of the source.
Tests used:
PI3K p110g = target: T1, PI3K p110g (Homo sapiens, UniProt P48736); assay: PI3K p110g kinase assay; type: biochemical
T1 construct: purchased Millipore
Protocol: (§1) In the assays described here, p110α-p85 complex and p110γ were acquired from Millipore. Assays were performed with Lα-phosphatidylinositol (Avanti) as described in Knight et al. Nat Protoc. 2007; 2 (10):2459-66. Inhibitor series were prepared 10% DMSO as 5× stocks for the assay. Assays of HsVps34 were performed as described in Knight et al, except that the final assay buffer composition used was changed to 20 mM HEPES 7.5, 100 mM NaCl, 3 mM MgCl, 1 mg/mL PI and 44 nM hvps34 was used in the assay. […] COS-7 cells were cultured in 10 cm dishes and transfected at 70% confluence with 10 μg of plasmid DNA (HA-tagged bovine PI4KIIIβ, HA-tagged human PI4KIIIα) using Lipofectamine 2000 and 5 ml Opti-MEM following the manufacturer's instructions. After 5 hours the transfection medium was replaced with 10 ml complete DMEM. 36 hrs post transfection, cells were washed once with 5 ml PBS (pH 7.4) and lysed in 1 ml of lysis buffer (1) on ice. Lysates were collected by scraping and after 15 min they were centrifuged at 13,000 rpm for 10 min. To the lysates was added 200 μl of protein G Sepharose 4 fast flow beads that were prewashed with PBS and lysis buffer and 2 μg of anti-HA antibody. The tubes were then incubated overnight at 4 degrees C. in a tube rotator. The Sepharose beads in the lysate were washed twice with 150 mM NaCl in RIPA buffer, twice with RIPA buffer and once with kinase buffer (50 mM Tris/HCl, pH 7.5, 20 mM MgCl2, 1 mM EGTA, 1 mM PtdIns, 0.4% Triton X-100, 0.5 mg/mL BSA) and finally the beads were resuspended in 200 μL kinase buffer. Kinase reactions were run in a mixture of 45 μL of PI buffer (1 mM PI in kinase buffer), 10 μL of immunoprecipitated beads, 2 µL of inhibitors (dissolved and diluted in DMSO) or DMSO and 5 μL of [γ-^32P]-ATP (1 mM and 2 μCi/tube). The immunoprecipitates in PI buffer were pre-incubated with the drugs for 20 min prior the initiation of kinase reaction by adding ATP and the reactions were carried out for 30 min in 15 ml polypropolyne tubes. Reactions were terminated by addition of 3 ml of CHCl3:CH3OH:HCl (200:100:0.75) followed by 0.6 ml of 0.6N HCl to induce phase separation. The mixtures were vortexed, centrifuged at 2000 rpm for 2 min and the upper phase was discarded. To the lower phase was added 1.5 ml of CHCl3:CH3OH:0.6N HCl (3:48:47) and the mixture vortexed and centrifuged at 2000 rpm for 2 min. The lower phase was then transferred to counting vials and evaporated. Samples were counted in a scintillation beta counter after adding 5 ml of Instafluor (Perkin-Elmer).
(§2) PI-kinase assay: Compounds are tested in C.1.1. PI kinase assays as described by Shokat et al., “A membrane capture assay for lipid kinase activity.” Nat. Protoc. 2007; 2(10):2459-66.

PI3KC2B = PI3KC2B (Homo sapiens, UniProt O00750); assay: PI3KC2B kinase assay; type: biochemical
Protocol: as §2

[1] = tested on: PI(4)P and PI(4,5)P2 pools in Huh7.5 cells; assay: Immunofluorescence of intracellular PI-4 and PIP2 pools in Huh7.5 cells; type: cell-based
Protocol: To further confirm its mechanism of action the effect of (1) on PI-4 levels was determined in cells using immunofluorescence to monitor the intracellular localized pools of PI-4. The effect of (1) on intracellular pools of PIP2 was tested, which were predicted to be similarly sensitive to inhibition using (1). […] Uninfected Huh7.5 cells or HCV-infected Huh7.5 cells were used.

HCV genotype 2a = assay: microbe, parasite or virus in culture; type: cell-based; conditions: Hepatitis C virus, Huh7.5, read-out: HCV2a EC50
PI4KIIIB = target: T2, PI4KIIIB (Bos taurus, UniProt O02810); assay: PI4KIIIB kinase assay; type: biochemical, bovine
T2 construct: made in house; host or cells: COS-7 cells, transient transfection, anti-HA immunoprecipitate on protein G Sepharose beads
Protocol: as §1, with “2007; 2 (10):2459-66.” left out, “for” for “for the assay. Assays of HsVps34 were performed as described in Knight et al, except that the final assay buffer composition used was changed to 20 mM HEPES 7.5, 100 mM NaCl, 3 mM MgCl, 1 mg/mL PI and 44 nM hvps34 was used in”, “Lysates were collected by scraping and after 15 min they were centrifuged at 13,000 rpm for 10 min.” left out, “The Sepharose beads in the lysate were washed twice with 150 mM NaCl in RIPA buffer, twice with RIPA buffer and once with kinase buffer (50 mM Tris/HCl, pH 7.5, 20 mM MgCl2, 1 mM EGTA, 1 mM PtdIns, 0.4% Triton X-100, 0.5 mg/mL BSA) and finally the beads were resuspended in 200 μL kinase buffer.” left out
PI-kinase assay: Compounds are tested in C.1.1. PI kinase assays as described by Shokat et al., “A membrane capture assay for lipid kinase activity.” Nat. Protoc.

HRV = assay: Rhinovirus antiviral assay; type: cell-based; conditions: Human rhinovirus sp.
PI3K p110a = target: T3, PI3K p110a (Homo sapiens, UniProt P42336); assay: PI3K p110a kinase assay; type: biochemical
T3 construct: purchased Millipore
Protocol: In the assays described here, p110α-p85 complex and p110γ were acquired from Millipore. Assays were performed with Lα-phosphatidylinositol (Avanti) as described in Knight et al. Nat Protoc. […] Inhibitor series were prepared 10% DMSO as 5× stocks for the assay. […] COS-7 cells were cultured in 10 cm dishes and transfected at 70% confluence with 10 μg of plasmid DNA (HA-tagged bovine PI4KIIIβ, HA-tagged human PI4KIIIα) using Lipofectamine 2000 and 5 ml Opti-MEM following the manufacturer's instructions. After 5 hours the transfection medium was replaced with 10 ml complete DMEM. 36 hrs post transfection, cells were washed once with 5 ml PBS (pH 7.4) and lysed in 1 ml of lysis buffer (1) on ice. […] To the lysates was added 200 μl of protein G Sepharose 4 fast flow beads that were prewashed with PBS and lysis buffer and 2 μg of anti-HA antibody. The tubes were then incubated overnight at 4 degrees C. in a tube rotator. […] Kinase reactions were run in a mixture of 45 μL of PI buffer (1 mM PI in kinase buffer), 10 μL of immunoprecipitated beads, 2 µL of inhibitors (dissolved and diluted in DMSO) or DMSO and 5 μL of [γ-^32P]-ATP (1 mM and 2 μCi/tube). […] Samples were counted in a scintillation beta counter after adding 5 ml of Instafluor (Perkin-Elmer). […]

PI4KIIIA = target: T4, PI4KIIIA (Homo sapiens, UniProt P42356); assay: PI4KIIIA kinase assay; type: biochemical
T4 construct: made in house; host or cells: COS-7 cells, transient transfection, anti-HA immunoprecipitate on protein G Sepharose beads
Protocol: as §1, with “Reactions were terminated by addition of 3 ml of CHCl3:CH3OH:HCl (200:100:0.75) followed by 0.6 ml of 0.6N HCl to induce phase separation. The mixtures were vortexed, centrifuged at 2000 rpm for 2 min and the upper phase was discarded. To the lower phase was added 1.5 ml of CHCl3:CH3OH:0.6N HCl (3:48:47) and the mixture vortexed and centrifuged at 2000 rpm for 2 min. The lower phase was then transferred to counting vials and evaporated.” left out, “(Perkin-Elmer). […]” for “(Perkin-Elmer).”

[2] = immunofluorescence, 250 nM, 500 nM or 1 uM, uninfected or HCV-infected Huh7.5 cells

T1 sequence (P48736 whole entry): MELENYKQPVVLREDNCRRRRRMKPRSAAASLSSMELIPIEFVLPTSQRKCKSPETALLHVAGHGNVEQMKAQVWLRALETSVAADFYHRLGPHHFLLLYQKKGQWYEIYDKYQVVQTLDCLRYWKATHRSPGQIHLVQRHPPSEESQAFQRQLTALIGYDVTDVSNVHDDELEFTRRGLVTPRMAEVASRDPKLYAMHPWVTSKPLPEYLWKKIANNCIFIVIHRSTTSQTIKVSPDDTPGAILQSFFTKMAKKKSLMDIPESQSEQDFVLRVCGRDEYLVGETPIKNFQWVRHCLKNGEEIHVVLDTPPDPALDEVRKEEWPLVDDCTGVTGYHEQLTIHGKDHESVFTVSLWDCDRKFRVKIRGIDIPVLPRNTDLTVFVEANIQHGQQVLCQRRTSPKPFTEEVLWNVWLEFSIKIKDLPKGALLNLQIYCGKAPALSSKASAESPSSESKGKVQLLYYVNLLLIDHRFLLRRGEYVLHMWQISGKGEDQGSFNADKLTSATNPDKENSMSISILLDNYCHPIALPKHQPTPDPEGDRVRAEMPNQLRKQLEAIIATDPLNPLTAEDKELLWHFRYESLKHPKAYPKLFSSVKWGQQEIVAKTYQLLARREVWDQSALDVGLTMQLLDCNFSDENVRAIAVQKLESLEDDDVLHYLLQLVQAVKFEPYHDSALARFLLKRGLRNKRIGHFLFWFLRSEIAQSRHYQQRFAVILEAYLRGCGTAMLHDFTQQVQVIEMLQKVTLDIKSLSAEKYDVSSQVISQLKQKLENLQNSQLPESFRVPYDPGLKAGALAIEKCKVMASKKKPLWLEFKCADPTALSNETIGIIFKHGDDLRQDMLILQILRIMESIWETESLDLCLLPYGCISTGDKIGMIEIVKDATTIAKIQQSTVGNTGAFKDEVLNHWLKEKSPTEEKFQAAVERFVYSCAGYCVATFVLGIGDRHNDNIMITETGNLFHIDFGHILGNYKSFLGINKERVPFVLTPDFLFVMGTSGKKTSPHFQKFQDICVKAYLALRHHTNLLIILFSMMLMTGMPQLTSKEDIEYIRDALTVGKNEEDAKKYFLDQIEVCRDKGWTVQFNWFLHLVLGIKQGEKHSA
PI3KC2B, sequence (O00750 whole entry): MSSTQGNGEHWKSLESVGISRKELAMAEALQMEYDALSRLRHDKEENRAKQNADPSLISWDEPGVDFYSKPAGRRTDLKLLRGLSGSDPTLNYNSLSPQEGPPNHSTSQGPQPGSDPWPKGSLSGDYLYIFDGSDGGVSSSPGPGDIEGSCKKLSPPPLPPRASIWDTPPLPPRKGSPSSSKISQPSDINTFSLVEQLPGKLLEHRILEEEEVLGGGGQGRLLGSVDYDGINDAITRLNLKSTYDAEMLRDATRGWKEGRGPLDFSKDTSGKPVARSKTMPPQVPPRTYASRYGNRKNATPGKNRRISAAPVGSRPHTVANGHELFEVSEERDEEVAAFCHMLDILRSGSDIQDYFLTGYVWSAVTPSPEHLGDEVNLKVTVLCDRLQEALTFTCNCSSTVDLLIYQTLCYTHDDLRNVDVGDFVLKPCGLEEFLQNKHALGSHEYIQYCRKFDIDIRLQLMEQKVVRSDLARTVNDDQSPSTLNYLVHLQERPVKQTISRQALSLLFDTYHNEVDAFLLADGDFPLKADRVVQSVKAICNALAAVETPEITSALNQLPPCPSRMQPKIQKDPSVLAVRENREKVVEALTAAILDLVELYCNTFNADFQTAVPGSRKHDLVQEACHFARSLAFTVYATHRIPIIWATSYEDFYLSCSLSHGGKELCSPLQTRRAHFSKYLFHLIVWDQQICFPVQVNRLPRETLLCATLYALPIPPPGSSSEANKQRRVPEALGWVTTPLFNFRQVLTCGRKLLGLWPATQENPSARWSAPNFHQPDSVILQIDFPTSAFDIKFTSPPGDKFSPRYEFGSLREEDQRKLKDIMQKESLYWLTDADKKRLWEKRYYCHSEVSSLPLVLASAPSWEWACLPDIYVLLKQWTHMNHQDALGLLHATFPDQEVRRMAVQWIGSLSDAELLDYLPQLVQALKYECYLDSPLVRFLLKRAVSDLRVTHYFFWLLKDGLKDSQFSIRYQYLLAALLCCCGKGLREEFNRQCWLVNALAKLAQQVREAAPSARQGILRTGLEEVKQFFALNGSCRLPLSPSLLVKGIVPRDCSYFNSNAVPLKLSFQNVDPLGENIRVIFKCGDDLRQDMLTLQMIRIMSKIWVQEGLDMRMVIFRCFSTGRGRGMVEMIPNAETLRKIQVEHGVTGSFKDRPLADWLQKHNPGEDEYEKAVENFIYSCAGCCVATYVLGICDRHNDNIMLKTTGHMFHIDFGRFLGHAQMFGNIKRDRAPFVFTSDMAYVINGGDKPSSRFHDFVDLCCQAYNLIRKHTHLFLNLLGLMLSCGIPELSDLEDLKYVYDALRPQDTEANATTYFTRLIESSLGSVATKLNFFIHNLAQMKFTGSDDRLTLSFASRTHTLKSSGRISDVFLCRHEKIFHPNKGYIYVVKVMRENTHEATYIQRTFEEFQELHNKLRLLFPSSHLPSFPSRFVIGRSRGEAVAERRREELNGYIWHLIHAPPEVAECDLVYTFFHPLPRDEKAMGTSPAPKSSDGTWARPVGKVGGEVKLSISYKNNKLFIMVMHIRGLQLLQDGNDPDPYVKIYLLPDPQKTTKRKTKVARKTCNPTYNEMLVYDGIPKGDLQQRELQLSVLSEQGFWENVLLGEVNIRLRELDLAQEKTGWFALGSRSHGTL
T2 sequence (O02810 whole entry): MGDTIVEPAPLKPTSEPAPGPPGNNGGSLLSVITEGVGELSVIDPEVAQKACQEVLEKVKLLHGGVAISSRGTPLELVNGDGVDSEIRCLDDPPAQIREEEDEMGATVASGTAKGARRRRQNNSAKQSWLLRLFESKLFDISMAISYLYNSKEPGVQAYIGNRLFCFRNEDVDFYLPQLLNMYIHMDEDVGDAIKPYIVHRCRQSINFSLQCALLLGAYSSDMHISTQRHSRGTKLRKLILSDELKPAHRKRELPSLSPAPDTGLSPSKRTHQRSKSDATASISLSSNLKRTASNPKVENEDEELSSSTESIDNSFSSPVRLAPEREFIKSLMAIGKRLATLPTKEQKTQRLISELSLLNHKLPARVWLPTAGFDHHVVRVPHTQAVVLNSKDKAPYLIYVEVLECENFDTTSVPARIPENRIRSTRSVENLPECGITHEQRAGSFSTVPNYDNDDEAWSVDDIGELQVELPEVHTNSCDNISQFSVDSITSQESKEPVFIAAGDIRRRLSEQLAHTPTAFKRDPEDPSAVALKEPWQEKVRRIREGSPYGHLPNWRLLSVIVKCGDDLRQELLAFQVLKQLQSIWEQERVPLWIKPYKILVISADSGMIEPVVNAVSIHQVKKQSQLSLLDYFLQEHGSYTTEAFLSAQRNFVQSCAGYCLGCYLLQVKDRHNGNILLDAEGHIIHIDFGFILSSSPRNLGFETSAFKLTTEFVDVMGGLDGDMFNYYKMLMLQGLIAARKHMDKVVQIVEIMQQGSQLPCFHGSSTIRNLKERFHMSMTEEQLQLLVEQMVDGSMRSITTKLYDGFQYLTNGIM

Compound | IC50 (PI3K p110g) [µM] | IC50 (PI3KC2B) [µM] | EC50 (HCV genotype 2a) [nM] | EC50 (HRV) [nM] | further results
COc1ccc(-c2sc(NC(=O)C3CCCC3)nc2C)cc1S(=O)(=O)Nc1ccc(O)cc1 [Compound 1] | – | – | – | – | Effect on the ER (calnexin co-staining) ([1]; control for non-specific effects): absence of any detectable effects on the ER; Effect on intracellular PI-4 (PI(4)P) levels [1, 2]: dose-dependent decrease; also recorded: decreases; Effect on intracellular PIP2 (PI(4,5)P2) levels [1, 2]: dose-dependent decrease; also recorded: decreases
COc1ccc(-c2sc(NCC3CCCCC3)nc2C)cc1S(=O)(=O)NC1CCCNC1 (centres unmarked) [Compound S-115, 5-[2-(cyclohexylmethylamino)-4-methyl-thiazol-5-yl]-2-methoxy-N-(3-piperidyl)benzenesulfonamide] | – | – | 100 to 1000 | < 1 | IC50 (PI4KIIIB): < 100 nM
COc1ccc(-c2sc(NC(=O)CC3CCCC3)nc2C)cc1S(=O)(=O)Nc1ccc(O)cc1 [Compound S-1, 2-cyclopentyl-N-[5-[3-[(4-hydroxyphenyl)sulfamoyl]-4-methoxy-phenyl]-4-methyl-thiazol-2-yl]acetamide] | > 10 | > 10 | 1 to 100 | < 1 | –
COc1ncc(-c2sc(NC(=O)CC3CCOCC3)nc2C)cc1S(=O)(=O)Nc1ccc(O)cc1 [Compound S-261] | 0.1 to 1 | – | 1 to 100 | 1000 to 10000 | –
COc1ccc(-c2sc(NC(=O)CC3CCOCC3)nc2C)cc1S(=O)(=O)Nc1ccc(O)cc1C [Compound S-231, N-[5-[3-[(4-hydroxy-2-methyl-phenyl)sulfamoyl]-4-methoxy-phenyl]-4-methyl-thiazol-2-yl]-2-tetrahydropyran-4-yl-acetamide] | > 10 | > 10 | – | – | –

Second part, led by results:

IC50 (PI3K p110g) [µM] | IC50 (PI3KC2B) [µM] | Compound | EC50 (HCV genotype 2a) [nM] | EC50 (HRV) [nM] | further results
> 10 | > 10 | COc1ccc(-c2sc(NC(C)(C)C)nc2C)cc1S(=O)(=O)N[C@H]1CC[C@H](O)CC1 [Compound S-216, 5-[2-(tert-butylamino)-4-methyl-thiazol-5-yl]-N-(4-hydroxycyclohexyl)-2-methoxy-benzenesulfonamide] | – | – | –
> 10 | – | COc1ccc(-c2sc(N[C@H](C)C3CCCCC3)nc2C)cc1S(=O)(=O)NC1CCCNC1 (stereo partly drawn) [Compound S-148, 5-[2-[[(1R)-1-cyclohexylethyl]amino]-4-methyl-thiazol-5-yl]-2-methoxy-N-(3-piperidyl)benzenesulfonamide] | – | – | IC50 (PI4KIIIB): < 100 nM; IC50 (PI3K p110a): > 10 µM; IC50 (PI4KIIIA): 100 to 1000 nM
> 10 | > 10 | COc1ccc(-c2sc(NC(=O)CCC3CCCC3)nc2C)cc1S(=O)(=O)NC1CCNCC1 [Compound S-160, 3-cyclopentyl-N-[5-[4-methoxy-3-(4-piperidylsulfamoyl)phenyl]-4-methyl-thiazol-2-yl]propanamide] | – | – | –
– | > 10 | COc1ccc(-c2sc(N[C@H](C)C3CCCCC3)nc2C)cc1S(=O)(=O)N[C@H]1CC[C@H](O)CC1 [Compound S-193, 5-[2-[[(1R)-1-cyclohexylethyl]amino]-4-methyl-thiazol-5-yl]-N-(4-hydroxycyclohexyl)-2-methoxy-benzenesulfonamide] | – | – | –
> 10 | > 10 | COc1ccc(-c2sc(NC(C)C)nc2C)cc1S(=O)(=O)N[C@H]1CC[C@H](O)CC1 [Compound S-215, N-(4-hydroxycyclohexyl)-5-[2-(isopropylamino)-4-methyl-thiazol-5-yl]-2-methoxy-benzenesulfonamide] | – | – | –

— patent US10428060B2, “PI-kinase inhibitors with anti-infective activity” (The Board of Trustees of the Leland Stanford Junior …, priority 2011, dated 2019)
